# Literature values, collected in US8163703B2, “Hepatitis C therapies” (BioCryst Pharmaceuticals, Inc., priority 2005, dated 2012).
# Tested on: HCV
# Conditions: ribavirin alone
compound,measurement,value
"NC(=O)c1ncn([C@@H]2O[C@H](CO)[C@@H](O)[C@H]2O)n1 [Ribavirin, 1-β-D-ribofuranosyl-1-1,2,4-triazole-3-carboxamide]",patients in whom serum amino transferase levels are reduced to normal,40%
